Where a SMILES comes first, the peptide text is derived from it. [ ]: non-standard residue; d: D form. The star is where a group is joined. 2Nal = N[C@@H](Cc1ccc2ccccc2c1)C(=O)O; Octanoyl = CCCCCCCC(=O)*; Dab = NCC[C@H](N)C(=O)O; AEEA = NCCOCCOCC(=O)O
What was measured:
[1] = test system: K. pneumonia ATCC 13883; format: cell-based, Klebsiella pneumoniae; conditions: K. pneumoniae ATCC 13883; MHB-II, inoculum 5 × 10^5 CFU/mL, 37 °C, 18–24 h, visual read-out, triplicate
Description: In the original report on S3(B), MIC experiments were carried out by using non-cation-adjusted MHB-I media. To this, bovine serum albumin (BSA) and acetic acid were added. The rationale for choosing a medium without cations is that cation-adjusted media (MHB-II) in some cases causes substantial inhibition of the activity of cationic peptides. Furthermore, some peptides are at risk of precipitation when diluted into MHB medium, which can be avoided via the addition of BSA and acetic acid. However, the use of MHB-II is favorable to imitate the in vivo conditions as much as possible. Both media were tested with and without the addition of BSA and acetic acid by trial and error. The use of pure MHB-II was compatible with S3(B) and its fatty acid analogues, and therefore was chosen for the MIC determinations. Noticeably, MHB-I with BSA and acetic acid led to precipitation of lipopeptides in the present work.
Cation-adjusted Mueller-Hinton broth (MHB-II) media (BD BBLTM Beef extract powder, BD BactoTMCasamino acids, and DIFCO soluble starch was from Becton, Dickinson and Company©, Franklin Lakes, NJ, USA). MHB media supplemented with 0.2% BSA was from Sigma Aldrich (St. Louis, MO, USA) and 0.01% acetic acid from VWR®. The 96 well plate cell-culture cluster, round-bottom, polypropylene plates, and V-shaped 96 well polypropylene plates were purchased from Corning® Inc., Costar®, Corning, NY, USA. Microseal® film was obtained from Bio-Rad Laboratories, Inc., Hercules, CA, USA. A VersaMaxTM Tunable Microplate Reader (Molecular Devices LLC, Sunnyvale, CA, USA) was used and the data were evaluated on a Softmax® Pro (Molecular Devices LLC).
The MIC experiments were performed according to a protocol adapted from Wiegand et al., with minor modifications. The MICs were determined in triplicate. The peptides were dissolved in Milli-Q water to produce 10 mg/mL stock solutions in small glass containers. The bacterial isolates to be tested were streaked onto agar plates to obtain single colonies, and the plates were incubated at 37 °C for 18–24 h. The strains tested were S. aureus ATCC 29213, P. aeruginosa ATCC 27853, E. coli ATCC 25922, A. baumannii ATCC 19606, and K. pneumonia ATCC 13883. Test compounds were prepared in 2-fold dilutions in 50 μL volumes in polypropylene microtiter plates. Bacterial cultures grown to OD600 = 0.1–0.4 were diluted to a desired OD600 of 0.001–0.002 corresponding to 1 × 10^6 CFU/mL. Next, 50 μL bacterial suspension was added to the microtiter plates, giving a final bacterial inoculum of 5 × 10^5 CFU/mL per well. The plates were incubated at 37 °C for 18–24 h. […] The MIC values were visually evaluated, and the MIC was set to the lowest concentration […] based on triplicate measurements. […]

[2] = test system: P. aeruginosa ATCC 27853
Description: The MIC constitutes a limited measure for antimicrobial activity. It indicates whether or not AMPs in different concentrations are able to prevent visible growth of bacteria.
Time-kill experiments were performed on balanced exponentially growing cultures of P. aeruginosa ATCC 27853. We used balanced cultures as described in Oddo et al.. Briefly, overnight cultures were prepared in MHB-II broth at 37 °C with shaking. Overnight cultures were back-diluted and grown exponentially for no less than 8–10 generations before experimentation. When experiments were done, exponentially growing cultures were back-diluted to an OD600 = 0.0005 approximately 5 × 10^5 CFU, into fresh MHB-II heated to 37 °C. Samples (250 μL) were taken at time points 0, 1, 3, 5, and 24 h. Samples were spun down at 8000× g for 5 min and washed in 1 mL of NaCl 0.9% before being spun down again and re-suspended in 250 μL NaCl 0.9%. From this, 10-fold dilution series were prepared and 10 μL samples were spot-plated in triplicate onto LB-agar. From the undiluted sample, 100 μL samples were also plated, i.e., giving a detection limit of 10 CFU/mL.

CCCCCCCC(=O)NCC[C@@H]1NC(=O)[C@H](CCN)NC(=O)[C@H](CCCNC(=N)N)NC(=O)[C@H](Cc2ccc3ccccc3c2)NC(=O)[C@H](CCN)NC(=O)[C@H](CC(N)=O)NC(=O)[C@H](CCN)NC(=O)[C@H](Cc2ccc3ccccc3c2)NC(=O)COCCOCCNC1=O [(C8)^5] (cyclo([Dab][2Nal]R[Dab][Dab](Octanoyl)[AEEA][2Nal][Dab]N))
Minimum inhibitory concentration, KP [1]: >64 µg/mL
bacterial cell count over the first 5 h ([2]; 1 × MIC (8 μg/mL), 0–5 h, MHB-II, 37 °C): did not change
log reduction of cell count within first hour of treatment ([2]; 5 × MIC ((C8)^5 40 μg/mL; colistin 2.5 μg/mL), 1 h, MHB-II, 37 °C, shaking, n = 3): 4.5 log
cell count / growth after 24 h ([2]; 5 × MIC ((C8)^5 40 μg/mL; colistin 2.5 μg/mL), 24 h, detection limit 10 CFU/mL): 10^4 CFU/mL
killing of the bacteria in the original inoculum ([2]; ATCC 27853, 1 h, 40 μg/mL): > 99.9%
